The values below come from patent publication US11535597B2, “Photoreactive ligands and uses thereof” (The Scripps Research Institute, priority 2017, dated 2022).

The test system of the experiment is proteins in HEK293T cells. The experiment can be described thus: MS-based mapping of FFF probe-modified peptides (isoTOP, sites of labeling). Type of experiment: binding, human. On the procedure:
Preparation and analysis was adapted from methods previously reported. In brief, for global mapping of fragment probe-modified peptides, separate 10 cm dishes of cells were treated with probes (200-250 μM) in 3.0 mL of DMEM (serum-free) and (if applicable) competitor ligands, proteomes harvested and subjected to click chemistry conditions with either light or heavy isotopically labeled biotin-TEV-azide (10 μL of 5 mM stocks in DMSO, final concentration=100 μM), TCEP, ligand and CuSO4 as detailed above. The samples were allowed to react for 1 h at which point the samples were centrifuged (16,000 g, 5 min, 4° C.). The resulting pellets were sonicated in ice-cold methanol (500 μL) and the resuspended light- and heavy-labeled samples were then combined and centrifuged (16,000 g, 5 min, 4° C.). The pellets were then solubilized in PBS containing 1.2% SDS (1 mL) with sonication and heating (5 min, 95° C.). Samples were transferred to falcon tubes containing DPBS (5 mL), to which a 100 μL of streptavidin-agarose beads slurry was added. After incubation, the beads (3 hr) were pelleted by centrifugation (1,400 g, 3 min) and were washed (2×10 mL PBS and 2×10 mL water). The beads were transferred to eppendorf tubes with 1 mL DPBS, centrifuged (1,400 g, 3 min), and resuspended in PBS containing 6 M urea. To this was added 10 mM DTT (25 μL of a 200 mM stock in water) and the beads were incubated at 65° C. for 15 mins. 20 mM iodoacetamide (25 μL of a 400 mM stock in water) was then added and allowed to react at 37° C. for 30 mins with shaking. The bead mixture was diluted with 900 μL PBS, pelleted by centrifugation (1,400 g, 3 min), and resuspended in 200 μL 2M urea (DPBS) containing trypsin and CaCl2 as described above. The beads were separated from the digest by centrifugation (1,000 g, 1 min), washed (2×1 mL PBS and 2×1 mL water) and then transferred to fresh eppendorfs with 1 mL water. The washed beads were washed once further in 150 μL TEV buffer (50 mM Tris, pH 8, 0.5 mM EDTA, 1 mM DTT) by centrifugation (1,400 g, 3 min) and the resuspended in 150 μL TEV buffer. 5 μL TEV protease (80 μM) was added and the reactions were rotated overnight at 29° C. The TEV digest was separated from the beads by centrifugation (1,400 g, 3 min) and the beads were washed once with water (100 μL). The samples were then acidified to a final concentration of 5% (v/v) formic acid and stored at −80° C. prior to analysis.
The resulting probe-modified peptides were collected for MS analysis, which was performed as described above with differences in the salt bumps applied in the chromatographic gradients which in this case were 0%, 30%, 60%, 90% and 100% NH4OAc (500 μM). The protein identification searches of the MS data were performed with the following changes applied to identify the peptides modified with the corresponding fragment probe and the cleaved TEV tag. All amino acids were considered as possible residues for modification. To facilitate the computational searches, sets of up to 3 amino acids were searched using ProLuCID and filtered with DTASelect as described above. […] The isoTOP ratios for probe labeled peptides were quantified using the in-house software CIMAGE.
For each protein in the site-of-labeling dataset, the UniProtKB accession number was used to map and collect relevant structures from the RCSB Protein Data Bank (PDB) fulfilling the following criteria: structures determined by X-ray crystallography, wild-type protein, Homo sapiens as the sole source organism. […] Fpocket 2.0 was used to detect potential binding pockets for the resultant structures with all parameters set at recommended default. Pockets with volume less than 500 Å^3 were removed from output prior to further analysis. Residues surrounding fpocket predicted binding pockets for each protein were collected to determine the number of residues overlapping with isoTOP peptides.

In the case of `C#CCCC1(CCC(=O)Nc2ccc3oc(=O)ccc3c2)N=N1` [probe 3, 3-(3-(But-3-yn-1-yl)-3H-diazirin-3-yl)-N-(2-oxo-2H-chromen-6-yl)propanamide], the “Labeled Peptide of H2AFZ Histone H2A.Z” value (Accession P0C0S5, residues of probe-labeled peptide, family Transcription factors, Regulators) is listed as 47-75. The “Labeled Peptide of GRWD1 Glutamate-rich WD repeat-containing protein 1” value (Accession Q9BQ67, residues of probe-labeled peptide, family Uncategorized) is given as 183-198. Also, the “Labeled Peptide” value runs as follows: (H2AFZ Histone H2A.Z, residues of probe-modified peptide) 47-75; (HSD17B4 Peroxisomal multifunctional enzyme type 2, residues of probe-modified peptide) 169-183; (LMNA Prelamin-A/C (P02545), residues of the probe-labeled peptide) 172-180; (NONO (Q15233), residues of the probe-labeled peptide) 127-135; (P00387 CYB5R3 NADH-cytochrome b5 reductase 3) 235-241; (P12532 CKMT1B Creatine kinase U-type, mitochondrial) 257-269. The “Labeled Peptide” value is, setting by setting: (P38117 ETFB Electron transfer flavoprotein subunit beta) 36-51; (P51659 HSD17B4 multifunctional enzyme type 2) 169-183; (PARP1 (P09874), residues of the probe-labeled peptide) 954-1000; (Q08211 DHX9 ATP-dependent RNA helicase A) 448-456; (protein ABHD10 (Q9NUJ1), residues of probe-labeled peptide) 285-300; (protein ACTL6A (O96019), residues of probe-labeled peptide) 25-34. Moreover, the “Labeled Peptide” value (protein ANAPC7 (Q9UJX3), residues of probe-labeled peptide) is given as 407-424; the “Labeled Peptide” value (protein CDK5RAP3 CDK5 regulatory subuni-associated protein 3 (Q96JB5), residues of probe-labeled peptide) was 351-367; the “Labeled Peptide” value (protein CKMT1B Creatine kinase U-type, mitochondria, residues of probe-labeled peptide) is listed as 257-269; the “Labeled Peptide” value (protein CKMT1B Creatine kinase U-type, motochondrial (P12532), residues of probe-labeled peptide) is listed as 257-269; the “Labeled Peptide” value (protein CYB5R3 NADH-cytochrome b5 reductase 3 (P00387), residues of probe-labeled peptide) is reported as 235-241; the “Labeled Peptide” value (protein CYB5R3 NADH-cytochrome b5 reductase 3, residues of probe-labeled peptide) is given as 235-241. Also, the “Labeled Peptide” value is listed as 536-547 (protein DDX17 Propable ATP-dependent RNA helicase DDX17 (Q92841), residues of probe-labeled peptide); 448-456 (protein DHX9 ATP-dependent RNA helicase A (Q08211), residues of probe-labeled peptide); 448-456 (protein DHX9 ATP-dependent RNA helicase A, residues of probe-labeled peptide); 58-85 (protein EEF1G Elongation factor 1-gamma (P26641), residues of probe-labeled peptide); 36-51 (protein ETFB Electron transfer flavoprotein subunit beta (P38117), residues of probe-labeled peptide); 36-51 (protein ETFB Electron transfer flavoprotein subunit beta, residues of probe-labeled peptide). In addition, the “Labeled Peptide” value by setting is: (protein NONO Non-POU domain-containing octamer-binding protein, residues of the probe-labeled peptide) 127-135; (protein PGK1 Phosphoglycerate kinase 1 (P00558)) 333-350; (protein PGK1 Phosphoglycerate kinase 1, residues of the probe-labeled peptide) 333-350; (protein PSMA2 Proteasome subunit alpha type-2 (P25787)) 19-39; (protein PSMA2 Proteasome subunit alpha type-2, residues of the probe-labeled peptide) 19-39; (protein Q96I99 SUCLG2 Succinyl-CoA ligase) 151-160. Further, the “Labeled Peptide” value by setting is: (protein Q01105 SET Protein SET) 91-122; (protein RBMXL1 RNA binding motif protein, X-linked-like-1 (Q96E39)) 245-252. Under “P00558, peptide QIVWNGPVGVFEWEAFAR, PDB 2WZB”, the “Labeled Peptide (residues) of PGK1 Phosphoglycerate kinase 1” value is on record as 333-350.

Turning to `C#CCCC1(CCC(=O)NCCc2ccc3c(c2)OCO3)N=N1` [probe 15, N-(2-(Benzo[d][1,3]dioxol-5-yl)ethyl)-3-(3-(but-3-yn-1-yl)-3H-diazirin-3-yl)propanamide], the “Labeled Peptide” value is, setting by setting: (MCM4 (P33991), residues of the probe-labeled peptide) 502-516; (NUDT12 (Q9BQG2), residues of the probe-labeled peptide) 143-166; (protein FDFT1 Squalene synthase (P37268), residues of probe-labeled peptide) 78-92; (protein FDFT1 Squalene synthase, residues of probe-labeled peptide) 78-92.
